ChEMBL document CHEMBL5579855 (J Med Chem, 2024)

Key:
PANC-1 [1] = assay: cells; settings: Homo sapiens, PANC-1, 96 h
Description: Antiproliferative activity against human PANC-1 cells assessed as inhibition of cell growth incubated for 96 hrs by CCK-8 cell viability assay

MDA-MB-231 = assay: cells; settings: Homo sapiens, MDA-MB-231, 96 h
Description: Antiproliferative activity against human MDA-MB-231 cells assessed as inhibition of cell growth incubated for 96 hrs by CCK-8 cell viability assay

PANC-1 [2] = assay: Antitumor activity against human PANC-1 cells xenografted in male BALB/c/Nu/Nu assessed as reduction in tumor growth inhibition at 4 mg/kg, ip and measured every 2 days for 21 days; settings: Mus musculus, PANC-1, 48 h, read-out: TGI
[3] = biological target: T1, Histone-lysine N-methyltransferase EHMT2 (Homo sapiens, UniProt Q96KQ7); assay: Inhibition of G9a (unknown origin) by AlphaLISA assay
T1 sequence (Q96KQ7 whole entry): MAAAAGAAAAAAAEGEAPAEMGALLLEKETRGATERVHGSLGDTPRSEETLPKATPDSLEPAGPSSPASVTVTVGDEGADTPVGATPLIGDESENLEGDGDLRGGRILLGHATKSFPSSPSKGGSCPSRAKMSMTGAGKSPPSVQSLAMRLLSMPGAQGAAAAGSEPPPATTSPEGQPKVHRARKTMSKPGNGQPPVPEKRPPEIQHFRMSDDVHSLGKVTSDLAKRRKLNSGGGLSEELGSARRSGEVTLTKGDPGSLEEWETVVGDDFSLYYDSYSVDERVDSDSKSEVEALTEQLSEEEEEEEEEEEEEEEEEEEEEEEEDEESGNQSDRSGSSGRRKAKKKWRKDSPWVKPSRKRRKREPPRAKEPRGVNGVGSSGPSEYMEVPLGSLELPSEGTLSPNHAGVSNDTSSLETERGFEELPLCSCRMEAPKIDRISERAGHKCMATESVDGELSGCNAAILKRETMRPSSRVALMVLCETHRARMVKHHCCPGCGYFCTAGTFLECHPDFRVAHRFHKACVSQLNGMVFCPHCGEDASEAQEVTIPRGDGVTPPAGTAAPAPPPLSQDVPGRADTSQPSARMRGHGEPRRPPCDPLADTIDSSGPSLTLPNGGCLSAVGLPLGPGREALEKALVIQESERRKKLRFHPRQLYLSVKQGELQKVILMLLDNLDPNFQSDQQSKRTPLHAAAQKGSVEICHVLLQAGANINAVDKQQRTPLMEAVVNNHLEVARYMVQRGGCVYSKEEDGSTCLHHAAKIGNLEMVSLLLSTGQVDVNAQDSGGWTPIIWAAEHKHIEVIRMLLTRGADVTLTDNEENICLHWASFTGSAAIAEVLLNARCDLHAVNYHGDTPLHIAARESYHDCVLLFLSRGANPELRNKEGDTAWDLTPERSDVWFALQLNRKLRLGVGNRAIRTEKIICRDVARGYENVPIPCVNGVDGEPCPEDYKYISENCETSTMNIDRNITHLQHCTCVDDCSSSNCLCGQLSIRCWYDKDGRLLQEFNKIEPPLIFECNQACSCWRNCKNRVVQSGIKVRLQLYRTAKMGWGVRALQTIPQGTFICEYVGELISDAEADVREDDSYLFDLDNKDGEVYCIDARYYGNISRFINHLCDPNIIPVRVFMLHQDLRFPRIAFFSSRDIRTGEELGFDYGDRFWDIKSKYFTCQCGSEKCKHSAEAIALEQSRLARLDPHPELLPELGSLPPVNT

[4] = biological target: T2, Histone-lysine N-methyltransferase NSD2 (Homo sapiens, UniProt O96028); assay: Inhibition of NSD2 (unknown origin) by AlphaLISA assay
T2 sequence (O96028 whole entry): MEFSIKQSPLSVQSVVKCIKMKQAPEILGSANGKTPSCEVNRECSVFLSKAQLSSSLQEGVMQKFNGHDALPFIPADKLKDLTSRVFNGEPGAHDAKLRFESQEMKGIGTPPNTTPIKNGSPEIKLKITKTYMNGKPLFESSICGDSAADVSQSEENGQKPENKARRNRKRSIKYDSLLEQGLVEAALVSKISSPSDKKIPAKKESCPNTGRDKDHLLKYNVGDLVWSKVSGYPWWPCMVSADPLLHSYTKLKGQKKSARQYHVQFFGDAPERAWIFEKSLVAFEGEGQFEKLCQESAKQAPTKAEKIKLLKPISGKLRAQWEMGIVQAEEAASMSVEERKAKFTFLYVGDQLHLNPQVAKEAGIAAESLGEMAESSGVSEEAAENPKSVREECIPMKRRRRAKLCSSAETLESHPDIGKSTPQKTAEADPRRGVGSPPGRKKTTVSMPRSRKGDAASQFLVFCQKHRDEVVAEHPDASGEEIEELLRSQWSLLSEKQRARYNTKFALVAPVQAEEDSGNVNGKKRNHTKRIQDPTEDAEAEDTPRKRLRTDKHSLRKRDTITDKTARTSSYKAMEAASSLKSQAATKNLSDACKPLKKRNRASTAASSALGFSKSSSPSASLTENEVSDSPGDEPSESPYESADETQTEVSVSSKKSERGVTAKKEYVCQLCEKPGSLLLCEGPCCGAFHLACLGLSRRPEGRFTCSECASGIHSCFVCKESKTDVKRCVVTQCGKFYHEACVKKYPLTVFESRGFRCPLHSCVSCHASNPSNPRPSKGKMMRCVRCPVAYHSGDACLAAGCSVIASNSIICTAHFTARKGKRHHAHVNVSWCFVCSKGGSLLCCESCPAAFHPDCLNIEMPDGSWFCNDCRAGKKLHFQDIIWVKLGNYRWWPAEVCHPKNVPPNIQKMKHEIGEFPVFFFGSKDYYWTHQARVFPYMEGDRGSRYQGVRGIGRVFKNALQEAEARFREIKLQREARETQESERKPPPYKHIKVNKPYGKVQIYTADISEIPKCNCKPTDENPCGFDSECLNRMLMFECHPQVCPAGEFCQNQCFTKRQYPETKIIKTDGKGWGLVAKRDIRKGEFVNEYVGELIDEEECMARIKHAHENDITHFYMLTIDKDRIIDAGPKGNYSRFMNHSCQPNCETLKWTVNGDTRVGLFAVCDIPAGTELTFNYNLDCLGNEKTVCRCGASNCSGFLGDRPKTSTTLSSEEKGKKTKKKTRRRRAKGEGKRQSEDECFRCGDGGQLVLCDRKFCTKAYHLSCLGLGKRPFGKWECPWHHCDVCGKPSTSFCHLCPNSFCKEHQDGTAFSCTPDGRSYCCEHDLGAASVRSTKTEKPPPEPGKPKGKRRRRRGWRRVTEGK

[5] = biological target: Protein arginine N-methyltransferase 1 (Homo sapiens, UniProt Q99873); assay: Inhibition of PRMT1 (unknown origin)
Sequence of Protein arginine N-methyltransferase 1 (Q99873 whole entry): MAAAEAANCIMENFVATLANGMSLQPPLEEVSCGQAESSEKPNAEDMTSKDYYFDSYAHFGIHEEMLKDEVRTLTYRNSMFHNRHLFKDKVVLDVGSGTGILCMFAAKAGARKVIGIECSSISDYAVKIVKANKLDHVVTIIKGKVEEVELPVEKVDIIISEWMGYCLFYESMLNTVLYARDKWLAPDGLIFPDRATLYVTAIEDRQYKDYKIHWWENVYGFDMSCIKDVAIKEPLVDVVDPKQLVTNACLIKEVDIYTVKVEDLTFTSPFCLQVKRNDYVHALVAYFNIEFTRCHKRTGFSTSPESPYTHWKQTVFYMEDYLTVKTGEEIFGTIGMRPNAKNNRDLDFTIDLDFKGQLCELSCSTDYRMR

[6] = AUC (0 to last) in mouse at 4 mg/kg, ip; format: ADME, organism-based; settings: in vivo
[7] = Toxicity in male BALB/c/Nu/Nu mouse xenografted with human PANC-1 cells assessed as change in body weight administered as ip dose and measured every 2 days for 21 days; format: organism-based; settings: in vivo, 504 h, time 21 day
[8] = biological target: Histone-lysine N-methyltransferase 2A (Homo sapiens, UniProt Q03164); assay: Inhibition of MLL1 (unknown origin)
Sequence of Histone-lysine N-methyltransferase 2A (Q03164 1-2718 limits assumed): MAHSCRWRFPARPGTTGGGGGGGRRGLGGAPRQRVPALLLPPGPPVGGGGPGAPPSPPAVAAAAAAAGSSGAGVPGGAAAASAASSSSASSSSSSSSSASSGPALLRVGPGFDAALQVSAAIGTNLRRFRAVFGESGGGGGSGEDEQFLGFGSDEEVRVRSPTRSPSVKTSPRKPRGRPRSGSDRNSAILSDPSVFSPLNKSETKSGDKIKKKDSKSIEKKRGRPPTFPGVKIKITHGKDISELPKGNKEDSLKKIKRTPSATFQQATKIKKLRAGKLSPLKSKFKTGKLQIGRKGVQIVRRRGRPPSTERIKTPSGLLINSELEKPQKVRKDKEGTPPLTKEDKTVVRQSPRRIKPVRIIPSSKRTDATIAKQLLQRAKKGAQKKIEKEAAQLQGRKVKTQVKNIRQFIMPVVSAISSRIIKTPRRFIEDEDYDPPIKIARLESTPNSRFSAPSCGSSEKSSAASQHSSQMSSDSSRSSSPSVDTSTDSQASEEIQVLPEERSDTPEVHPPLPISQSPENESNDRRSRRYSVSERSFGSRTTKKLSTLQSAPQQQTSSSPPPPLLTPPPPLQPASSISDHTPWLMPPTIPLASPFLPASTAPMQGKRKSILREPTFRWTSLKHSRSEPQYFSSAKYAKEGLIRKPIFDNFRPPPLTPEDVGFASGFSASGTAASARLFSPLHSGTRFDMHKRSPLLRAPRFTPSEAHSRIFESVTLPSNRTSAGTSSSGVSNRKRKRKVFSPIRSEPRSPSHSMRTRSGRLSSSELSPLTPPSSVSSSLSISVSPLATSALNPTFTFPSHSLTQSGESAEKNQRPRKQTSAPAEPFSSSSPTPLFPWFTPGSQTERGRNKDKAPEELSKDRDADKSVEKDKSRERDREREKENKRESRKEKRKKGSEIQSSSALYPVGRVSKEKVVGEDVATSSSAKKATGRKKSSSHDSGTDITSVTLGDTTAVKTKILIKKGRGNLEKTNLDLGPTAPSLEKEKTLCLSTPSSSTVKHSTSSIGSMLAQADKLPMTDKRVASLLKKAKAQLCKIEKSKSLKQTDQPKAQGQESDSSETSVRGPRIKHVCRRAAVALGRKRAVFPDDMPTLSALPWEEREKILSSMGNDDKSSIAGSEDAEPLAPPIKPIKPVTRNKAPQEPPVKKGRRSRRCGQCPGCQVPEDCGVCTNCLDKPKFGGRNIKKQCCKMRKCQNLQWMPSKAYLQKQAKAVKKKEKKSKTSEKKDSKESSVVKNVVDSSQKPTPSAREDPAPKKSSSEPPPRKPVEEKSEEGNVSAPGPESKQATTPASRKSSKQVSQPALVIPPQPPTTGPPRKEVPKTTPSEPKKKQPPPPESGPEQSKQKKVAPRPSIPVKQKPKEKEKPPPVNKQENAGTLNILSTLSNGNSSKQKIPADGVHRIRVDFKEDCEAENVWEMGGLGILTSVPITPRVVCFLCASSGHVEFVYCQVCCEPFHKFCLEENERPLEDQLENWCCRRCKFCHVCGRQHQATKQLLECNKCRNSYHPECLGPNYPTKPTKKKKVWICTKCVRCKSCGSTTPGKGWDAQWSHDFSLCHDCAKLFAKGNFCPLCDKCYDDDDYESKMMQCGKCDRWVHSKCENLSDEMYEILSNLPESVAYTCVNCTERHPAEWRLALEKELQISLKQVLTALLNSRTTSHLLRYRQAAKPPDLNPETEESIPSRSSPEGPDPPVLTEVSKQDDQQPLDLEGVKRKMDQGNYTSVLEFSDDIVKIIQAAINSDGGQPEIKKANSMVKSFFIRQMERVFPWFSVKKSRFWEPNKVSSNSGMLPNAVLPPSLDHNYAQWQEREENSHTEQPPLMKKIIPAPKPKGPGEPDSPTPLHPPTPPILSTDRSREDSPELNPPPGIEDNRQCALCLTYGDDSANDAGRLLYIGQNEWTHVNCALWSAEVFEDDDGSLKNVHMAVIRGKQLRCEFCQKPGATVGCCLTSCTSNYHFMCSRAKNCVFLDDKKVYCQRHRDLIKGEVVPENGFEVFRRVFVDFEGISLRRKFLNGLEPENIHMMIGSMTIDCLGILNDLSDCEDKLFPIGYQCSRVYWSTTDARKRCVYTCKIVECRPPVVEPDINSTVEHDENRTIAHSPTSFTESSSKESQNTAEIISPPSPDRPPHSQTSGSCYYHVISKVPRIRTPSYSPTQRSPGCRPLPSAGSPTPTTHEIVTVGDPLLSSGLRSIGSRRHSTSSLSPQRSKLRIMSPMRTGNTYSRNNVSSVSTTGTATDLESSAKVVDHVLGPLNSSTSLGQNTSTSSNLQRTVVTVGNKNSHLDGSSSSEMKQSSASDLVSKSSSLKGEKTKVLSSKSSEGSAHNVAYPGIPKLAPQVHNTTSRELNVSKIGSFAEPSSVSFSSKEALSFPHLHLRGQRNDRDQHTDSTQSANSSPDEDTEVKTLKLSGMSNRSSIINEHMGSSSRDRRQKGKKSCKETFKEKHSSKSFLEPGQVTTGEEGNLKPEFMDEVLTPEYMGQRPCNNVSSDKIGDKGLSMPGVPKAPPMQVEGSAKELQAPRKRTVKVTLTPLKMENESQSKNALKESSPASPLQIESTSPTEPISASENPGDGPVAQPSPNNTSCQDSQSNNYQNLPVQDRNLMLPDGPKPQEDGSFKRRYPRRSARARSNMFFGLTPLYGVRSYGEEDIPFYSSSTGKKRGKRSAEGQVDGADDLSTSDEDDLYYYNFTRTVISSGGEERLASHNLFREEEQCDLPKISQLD
Sequence of Histone-lysine N-methyltransferase 2A (Q03164 2719-3969 limits assumed): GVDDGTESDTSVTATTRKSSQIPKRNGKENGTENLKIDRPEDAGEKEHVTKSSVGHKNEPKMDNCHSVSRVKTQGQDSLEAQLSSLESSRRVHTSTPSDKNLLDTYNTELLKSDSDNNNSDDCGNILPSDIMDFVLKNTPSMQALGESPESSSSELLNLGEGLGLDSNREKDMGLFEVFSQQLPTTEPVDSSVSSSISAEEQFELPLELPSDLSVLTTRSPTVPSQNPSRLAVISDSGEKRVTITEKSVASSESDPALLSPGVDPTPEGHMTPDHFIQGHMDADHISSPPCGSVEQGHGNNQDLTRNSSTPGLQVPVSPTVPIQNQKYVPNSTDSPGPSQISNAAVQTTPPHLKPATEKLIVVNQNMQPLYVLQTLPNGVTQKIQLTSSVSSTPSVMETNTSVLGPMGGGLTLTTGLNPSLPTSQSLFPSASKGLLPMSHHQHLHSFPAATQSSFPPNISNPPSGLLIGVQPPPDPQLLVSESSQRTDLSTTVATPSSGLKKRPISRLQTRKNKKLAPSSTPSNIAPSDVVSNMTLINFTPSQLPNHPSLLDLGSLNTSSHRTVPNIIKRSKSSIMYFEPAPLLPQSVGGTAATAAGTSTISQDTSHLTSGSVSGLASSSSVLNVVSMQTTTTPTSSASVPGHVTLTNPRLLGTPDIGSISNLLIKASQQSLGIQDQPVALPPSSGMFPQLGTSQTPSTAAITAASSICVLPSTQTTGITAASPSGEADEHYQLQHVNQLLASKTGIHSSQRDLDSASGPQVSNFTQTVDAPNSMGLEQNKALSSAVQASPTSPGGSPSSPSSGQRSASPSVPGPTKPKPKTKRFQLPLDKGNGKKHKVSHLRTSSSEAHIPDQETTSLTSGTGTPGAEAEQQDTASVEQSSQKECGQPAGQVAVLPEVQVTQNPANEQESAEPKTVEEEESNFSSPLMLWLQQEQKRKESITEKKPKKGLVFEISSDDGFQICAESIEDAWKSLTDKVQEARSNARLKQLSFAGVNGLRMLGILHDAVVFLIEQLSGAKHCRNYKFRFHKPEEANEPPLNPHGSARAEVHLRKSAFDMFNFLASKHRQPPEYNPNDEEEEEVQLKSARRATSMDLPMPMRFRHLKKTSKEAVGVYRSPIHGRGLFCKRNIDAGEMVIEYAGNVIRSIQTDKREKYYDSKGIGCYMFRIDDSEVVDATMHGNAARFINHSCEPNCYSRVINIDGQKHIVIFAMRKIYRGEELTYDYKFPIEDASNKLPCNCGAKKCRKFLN

[9] = Cmax in mouse at 4 mg/kg, ip; format: ADME, organism-based; settings: in vivo
[10] = biological target: DNA (cytosine-5)-methyltransferase 1 (Homo sapiens, UniProt P26358); assay: Inhibition of DNMT1 (unknown origin)
[11] = biological target: Protein arginine N-methyltransferase 5 (Homo sapiens, UniProt O14744); assay: Inhibition of PRMT5 (unknown origin)
Sequence of Protein arginine N-methyltransferase 5 (O14744 whole entry): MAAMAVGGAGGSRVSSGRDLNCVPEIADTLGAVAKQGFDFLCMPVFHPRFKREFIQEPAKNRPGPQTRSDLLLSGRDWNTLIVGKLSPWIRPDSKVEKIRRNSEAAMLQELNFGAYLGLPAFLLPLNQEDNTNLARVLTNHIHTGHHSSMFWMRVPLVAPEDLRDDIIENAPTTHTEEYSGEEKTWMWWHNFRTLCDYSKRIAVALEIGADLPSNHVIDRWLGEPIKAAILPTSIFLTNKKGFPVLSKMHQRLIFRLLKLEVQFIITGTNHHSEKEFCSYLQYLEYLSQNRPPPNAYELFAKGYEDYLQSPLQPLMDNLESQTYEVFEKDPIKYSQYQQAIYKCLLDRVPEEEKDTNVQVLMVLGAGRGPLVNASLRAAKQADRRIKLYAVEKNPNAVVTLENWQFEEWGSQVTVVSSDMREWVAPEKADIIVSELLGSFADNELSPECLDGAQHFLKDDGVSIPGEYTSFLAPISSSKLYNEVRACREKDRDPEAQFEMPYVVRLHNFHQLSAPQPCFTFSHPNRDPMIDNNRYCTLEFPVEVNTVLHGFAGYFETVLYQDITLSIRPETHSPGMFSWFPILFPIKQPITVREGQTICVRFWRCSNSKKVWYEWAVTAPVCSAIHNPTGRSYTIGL

[12] = AUC (0 to infinity) in mouse at 4 mg/kg, ip; format: ADME, organism-based; settings: in vivo
[13] = MRT (0 to t) in mouse at 4 mg/kg, ip; format: ADME, organism-based; settings: in vivo
[14] = biological target: T3, Histone-arginine methyltransferase CARM1 (Homo sapiens, UniProt Q86X55); assay: Inhibition of PRMT4 (unknown origin)
T3 sequence (Q86X55 whole entry): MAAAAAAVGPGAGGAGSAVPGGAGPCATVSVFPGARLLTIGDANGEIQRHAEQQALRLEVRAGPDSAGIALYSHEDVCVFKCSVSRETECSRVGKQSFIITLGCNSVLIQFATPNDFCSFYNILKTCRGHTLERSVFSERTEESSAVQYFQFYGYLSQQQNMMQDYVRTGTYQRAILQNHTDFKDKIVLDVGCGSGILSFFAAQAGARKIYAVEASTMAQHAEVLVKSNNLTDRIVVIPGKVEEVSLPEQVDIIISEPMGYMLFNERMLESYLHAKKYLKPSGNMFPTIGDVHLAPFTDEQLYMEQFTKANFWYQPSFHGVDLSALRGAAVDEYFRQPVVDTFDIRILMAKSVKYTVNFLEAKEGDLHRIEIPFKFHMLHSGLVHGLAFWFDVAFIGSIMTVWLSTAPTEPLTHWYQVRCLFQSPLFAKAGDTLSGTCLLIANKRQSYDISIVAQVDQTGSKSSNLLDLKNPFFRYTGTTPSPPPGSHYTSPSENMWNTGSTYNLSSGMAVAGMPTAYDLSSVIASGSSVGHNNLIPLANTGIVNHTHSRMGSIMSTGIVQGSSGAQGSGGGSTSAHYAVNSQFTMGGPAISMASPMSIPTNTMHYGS

[15] = Toxicity in male BALB/c/Nu/Nu mouse xenografted with human PANC-1 cells assessed as drug tolerance administered as ip dose and measured every 2 days for 21 days; format: organism-based; settings: in vivo, 504 h, time 21 day
[16] = biological target: Histone-lysine N-methyltransferase EZH2 (Homo sapiens, UniProt Q15910); assay: Inhibition of EZH2 (unknown origin)
[17] = biological target: Histone-lysine N-methyltransferase 2B (Homo sapiens, UniProt Q9UMN6); assay: Inhibition of MLL4 (unknown origin)
[18] = Half life in mouse at 4 mg/kg, ip; format: ADME, organism-based; settings: in vivo
[19] = biological target: T4, Histone-lysine N-methyltransferase EHMT1 (Homo sapiens, UniProt Q9H9B1); assay: Inhibition of GLP (unknown origin)
T4 sequence (Q9H9B1 whole entry): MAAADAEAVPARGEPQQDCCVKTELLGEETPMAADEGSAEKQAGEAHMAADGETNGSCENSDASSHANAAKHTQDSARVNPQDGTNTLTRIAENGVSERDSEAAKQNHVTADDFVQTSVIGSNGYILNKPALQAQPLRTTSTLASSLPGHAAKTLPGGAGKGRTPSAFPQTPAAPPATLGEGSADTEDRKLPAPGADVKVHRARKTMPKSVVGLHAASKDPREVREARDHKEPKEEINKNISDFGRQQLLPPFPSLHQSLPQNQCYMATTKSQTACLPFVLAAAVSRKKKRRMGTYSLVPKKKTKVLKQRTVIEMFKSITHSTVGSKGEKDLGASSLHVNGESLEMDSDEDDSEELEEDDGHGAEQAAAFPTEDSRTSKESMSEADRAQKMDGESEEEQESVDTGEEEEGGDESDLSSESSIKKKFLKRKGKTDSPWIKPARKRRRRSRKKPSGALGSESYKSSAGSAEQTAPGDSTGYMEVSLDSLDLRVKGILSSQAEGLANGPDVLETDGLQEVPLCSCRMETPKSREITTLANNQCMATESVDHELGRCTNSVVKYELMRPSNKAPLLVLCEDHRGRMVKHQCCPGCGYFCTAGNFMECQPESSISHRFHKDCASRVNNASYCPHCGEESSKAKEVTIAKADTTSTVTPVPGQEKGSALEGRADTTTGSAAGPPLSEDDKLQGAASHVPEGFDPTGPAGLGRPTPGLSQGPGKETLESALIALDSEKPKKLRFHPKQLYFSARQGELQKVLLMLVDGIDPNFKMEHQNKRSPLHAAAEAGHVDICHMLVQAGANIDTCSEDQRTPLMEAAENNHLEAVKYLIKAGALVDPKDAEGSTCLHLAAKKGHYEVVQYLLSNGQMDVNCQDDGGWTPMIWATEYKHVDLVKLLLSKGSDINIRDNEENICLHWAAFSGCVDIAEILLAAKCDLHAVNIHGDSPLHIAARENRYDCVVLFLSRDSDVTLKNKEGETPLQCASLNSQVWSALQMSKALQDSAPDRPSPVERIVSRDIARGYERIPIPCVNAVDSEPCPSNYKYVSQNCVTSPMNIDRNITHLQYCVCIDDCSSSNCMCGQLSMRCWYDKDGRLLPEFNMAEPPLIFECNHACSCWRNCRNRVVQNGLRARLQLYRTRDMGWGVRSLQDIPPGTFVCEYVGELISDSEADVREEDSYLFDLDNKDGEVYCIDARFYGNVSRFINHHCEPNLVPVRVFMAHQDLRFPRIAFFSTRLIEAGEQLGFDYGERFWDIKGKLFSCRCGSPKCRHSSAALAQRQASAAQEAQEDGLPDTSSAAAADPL

COc1cc2c(NC3CCN(C(C)C)CC3)nc(N3CCC(F)(F)CC3)nc2cc1OCCCN1CCCC1
IC50 (PANC-1 [1]): 5.74 µM
IC50 (MDA-MB-231): 3.31 µM
inhibition in vivo at 4 mg/kg (PANC-1 [2]): 7.34%

C=CC(=O)N(C)c1nc(NC2CCN(C(C)C)CC2)c2cc(OC)c(OCCCN3CCCC3)cc2n1
IC50 [3]: 0.0085 µM

CNc1nc2cc(OCCCN3CCCC3)c(OC)cc2n1C(C)C
IC50 [3]: < 0.1 µM

COc1cc2nc(C#N)nc(NC3CCN(Cc4ccccc4)CC3)c2cc1OC
IC50 [3]: > 10 µM
IC50 [4]: 2.65 µM

COc1cc2c(NC3CCN(C(C)C)CC3)nc(C#N)nc2cc1OCCCN1CCCC1
IC50 [5]: 6.44 µM
AUClast [6]: 1987 ng·h/mL
Activity [7]: Non-Toxic
IC50 [8]: > 10 µM
Cmax [9]: 732 ng/mL
IC50 [10]: > 10 µM
IC50 [11]: > 10 µM
AUC [12]: 2960 ng·h/mL
MRT last [13]: 20.3 h
IC50 [14]: > 10 µM
Activity [15]: Non-Toxic
IC50 [16]: > 10 µM
IC50 [17]: > 10 µM
half-life [18]: 16 h
IC50 [19]: 0.41 µM

COc1cc(F)c(-c2cc(Cn3cnc4c(N)ncnc43)c(N3CCC[C@](N)([C@H](O)CF)C3)cn2)cc1F
IC50 [4]: < 0.1 µM
